In US7166695B2, “Affinity markers for human serum albumin” (ConjuChem Biotechnologies Inc., priority 1997, dated 2007):
Where a SMILES comes first, the peptide text is derived from it. [ ]: non-standard residue; d: D form. The star is where a group is joined. X1 = O=C1N[C@H]2[C@H](CS[C@H]2CCCCC(=O)Oc2ccc(C(=O)*)cc2)N1; Benzoyl(4-OH) = O=C(c1ccc(O)cc1)*

Key:
HSA [1] = target: T1, HSA (Homo sapiens, UniProt P02768); assay: Kinetic study by ELISA capture in human plasma; format: biochemical; details: 100 μM in human plasma, RT, 0-60 min
Method: The samples were then allowed to incubate at RT for 0, 5, 10, 15, 30 and 60 min, when 5 μL of each sample was diluted with 295 μL PBS and kept at −20° C. before use. The samples were then diluted to 2 μg/mL using PBS and transferred to an ELISA plate previously coated with polyclonal anti-human serum albumin (procedure described above). The plates were then rinsed with PBS-Tween 20 (0.05%) three times, and then with PBS. Goat polyclonal anti-biotin (Pierce) (1:200, v/v, in PBS containing 0.05% BSA) was then added to the plates, allowed to incubate for 1 h at RT, rinsed with PBS-Tween 20 (0.05%) three times, and then with PBS. The plates were then treated with 100 μL of peroxidase-conjugated rabbit anti-goat IgG (Jackson Immuno Research) diluted 1/100,000 with PBS for 20 min at RT. The plates were then rinsed with PBS-Tween 20 (0.05%) three times, and then with PBS. […] The plates were then read on a SpectraMax 250 at λ 490 nm.
At each time mentioned in the figure, 2 μg/mL of each sample was captured on an ELISA plate initially coated with polyclonal anti-HSA, treated with goat polyclonal anti-biotin, followed by peroxidase conjugated rabbit anti-goat IgG and OD read at 490 nm using SpectraMax 250.

fraction V HSA [2] = target: T2, fraction V HSA (Homo sapiens, UniProt P02768); assay: Kinetic studies using HPLC, reaction with fraction V HSA in PBS; format: biochemical; details: 100 μM compound and 600 μM HSA in PBS
T2 construct: purchased Calbiochem
From the text: (§1) The chromatograms were each integrated using identical data parameters and resulting calculated areas under each peak converted to concentrations and plotted against time.
FIG. 11 plots the rate of disappearance of biotin-OPh-CO—NH2 vs. time and the rate of appearance of the leaving group, HO-Ph-CO—NH2, vs. time.
Due to overlapping peaks in the HPLC chromatogram, the rate of disappearance of biotin-OPh-CO-FlYEE-NH2 cannot be determined.

[3] = target: human serum albumin (HSA) (Homo sapiens, UniProt P02768); assay: Biotinylation of whole blood, plasma or serum; SDS-PAGE and immunoblot with peroxidase labeled streptavidin; details: 100 or 600 μM, 1 h at 37° C.
Method: The reaction samples were allowed to incubate for 1 h at RT or 37° C. For the whole blood sample, the plasma was extracted from whole blood at the end of reaction. […] These additional samples were diluted 1/60 in PBS and analyzed directly on SDS-PAGE, immunoblot, ELISA, or frozen at −20° C. until use. As positive controls, 50 μM of NHS-LC-biotin (Pierce) and 100 μM of D-biotin were used. Protein assay was performed using BCA kit (Pierce).
Proteins were separated by SDS-PAGE under non-reducing conditions (Laemmli, 1970), transferred to 0.1 μM-pore nitrocellulose sheets (Schleicher and Schuell) and probed with peroxidase labeled streptavidin (Jackson Immuno Research).
Whole blood was incubated with biotin ester for 1 h at room temperature, then plasma was extracted by centrifugation. A 5 μg sample was separated by 8% SDS-PAGE and transferred onto blot. The immunoblot was blocked with 5% skim milk (Nestle) and then incubated with peroxidase labeled-streptavidin diluted at 1/5000 in PBS-BSA 0.5% for 20 min at RT. An ECL kit was used to detect peroxidase labeled-streptavidin on Hyperfilm ECL (Amersham), exposed for 1 min.
A 5 μg portion of each sample was separated by 8% SDS-PAGE and transferred onto blot. The immunoblot was blocked with 5% skim milk (Nestle) and then incubated with peroxidase labeled-streptavidin diluted at 1/5000 in PBS-BSA 0.5% for 20 min at RT. […]

HSA [4] = target: T1, HSA; assay: Mass spectral analysis of tryptic digest of HSA:LC-biotin; details: HPLC peaks at 78 and 85 min
Method: LC-biotin is biotin-NH—(CH2)5—C(O)—.
The specificity with which biotin-OPh-CO-FlYEE-NH2 reacts with a specific lysine residue on HSA was determined by mass spectral analysis of a tryptic digest of LC-biotin conjugated to HSA by LC-biotin-OPh-CO-FlYEE-NH2 (FIG. 15). Using LC -biotin-OPh-CO-FlYEE-NH2 instead of biotin-OPh-CO-FlYEE-NH2 facilitated a larger mass separation in the mass spectrum and identification of HSA from HSA:LC-biotin. […] This mass accounts only for the addition of one LC-biotin and since the fragment at 78 min contains only one Lys residue and LC-biotin is attached to it, and this peptide sequence contains the previous sequence, the only lysine residue in this sequence where biotin could be attached is Lys519.

fraction V HSA [5] = target: T2, fraction V HSA; assay: Competition ELISA test; format: binding
Method: A solution of 100 μL rabbit polyclonal anti-human serum albumin. (Boehringer) diluted at 1/5000 in PBS was coated overnight at 4° C. onto ELISA plates (Nunc). These plates were then saturated with 5% BSA (Sigma) in PBS for 2 h at RT. For the competition test, varying concentrations of HO-Ph-CO-FlYEE-NH2, 44 μM biotin-OPh-CO-FlYEE-NH2, and 15 μM of fraction V HSA were incubated for 1 h at 37° C. To assess the ability of biotin-OPh-CO-FlYEE-NH2 to displace HO-Ph-CO-FlYEE-NH2, varying concentrations of HO-Ph-CO-FlYEE-NH2 were incubated with HSA for 1 h at 37° C., then 44 μM of biotin-OPh-CO-FlYEE-NH2 was added and allowed to incubate at 37° C. for 1 h. The reaction mixtures were then centrifuged through 30 kDa Centricon tubes (Sarthorious) to a volume of 50 μL, diluted with 500 μL of PBS, then re-concentrated to 50 μL. This process was then repeated and transferred to the ELISA plate previously coated with polyclonal anti-human serum albumin (procedure described above). These plates were then rinsed with PBS-Tween 20 (0.05%) three times, then with PBS. Peroxidase-labeled streptavidin (1:500, v/v, in PBS containing 0.05% BSA) was then added to the plates, allowed to incubate for 20 min at RT, rinsed with PBS-Tween 20 (0.05%) three times, and then with PBS. […] The plates were then read on a SpectraMax 250 at λ 490 nm.
FIG. 8 plots optical density as a function of the concentration of HO-Ph-CO-FlYEE-NH2. […] The HSA was captured on an ELISA plate initially coated with polyclonal anti-HSA, treated with peroxidase labeled streptavidin and OD read at 490 nm using SpectraMax 250.
In these experiments, solutions of 0 to 50 molar excess HO-Ph-CO-FlYEE-NH2 and 15 μM fraction V HSA were incubated for 1 h at RT when 44 μM of biotin-OPh-CO-FlYEE-NH2, was added and reaction incubated for 1 h at 37° C. The HSA was captured on an ELISA plate initially coated with polyclonal anti-HSA, treated with peroxidase labeled streptavidin and OD read at 490 nm using SpectraMax 250.

pig albumin = target: T3, pig albumin (Sus scrofa, UniProt P08835); assay: Biotinylation of whole blood; SDS-PAGE and immunoblot with peroxidase labeled streptavidin; format: biochemical; details: samples of whole blood
T3 construct: Whole blood was incubated with biotin ester for 1 h at room temperature, then plasma was extracted by centrifugation; from tissue; host or cells: pig whole blood

commercial human plasma = assay: Kinetic studies using HPLC, reaction in commercial human plasma; format: biochemical; details: 100 μM in commercial human plasma
Method: as §1
FIG. 12 plots the rate of appearance of the leaving group, HO-Ph-CO-FlYEE-NH2, vs. time (seconds) as a result of the reaction of 100 μM biotin-OPh-CO-FlYEE-NH2 in commercial human plasma. Due to overlapping peaks in the HPLC chromatogram, the rate of disappearance of biotin-OPh-CO-FlYEE-NH2 cannot be determined.

dog albumin = target: T4, dog albumin (Canis lupus familiaris, UniProt P49822); assay: Biotinylation of whole blood; SDS-PAGE and immunoblot with peroxidase labeled streptavidin; format: biochemical; details: samples of whole blood
T4 construct: Whole blood was incubated with biotin ester for 1 h at room temperature, then plasma was extracted by centrifugation; from tissue; host or cells: dog whole blood

[6] = Hydrolysis in PBS followed by HPLC; format: physicochemical; details: pH 7.4, RT (FIG. 13), read-out: half-life of hydrolysis of the phenol ester (converted)
From the text: as §1

T3 sequence (P08835 25-607): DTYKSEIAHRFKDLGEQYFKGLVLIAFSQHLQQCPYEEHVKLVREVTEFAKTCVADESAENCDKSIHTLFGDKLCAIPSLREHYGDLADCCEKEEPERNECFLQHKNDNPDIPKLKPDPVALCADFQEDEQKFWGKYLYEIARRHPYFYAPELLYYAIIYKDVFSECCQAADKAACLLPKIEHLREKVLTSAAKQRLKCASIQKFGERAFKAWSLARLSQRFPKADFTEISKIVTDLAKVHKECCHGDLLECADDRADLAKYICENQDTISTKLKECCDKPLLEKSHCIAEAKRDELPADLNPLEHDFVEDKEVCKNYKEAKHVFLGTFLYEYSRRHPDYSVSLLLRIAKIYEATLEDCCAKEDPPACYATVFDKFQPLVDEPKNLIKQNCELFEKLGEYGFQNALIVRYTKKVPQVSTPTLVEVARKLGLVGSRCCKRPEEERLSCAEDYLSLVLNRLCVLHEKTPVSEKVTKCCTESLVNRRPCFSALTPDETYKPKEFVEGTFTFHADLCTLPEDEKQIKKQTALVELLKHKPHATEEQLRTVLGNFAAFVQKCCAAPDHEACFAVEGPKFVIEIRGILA
T4 sequence (P49822 25-608): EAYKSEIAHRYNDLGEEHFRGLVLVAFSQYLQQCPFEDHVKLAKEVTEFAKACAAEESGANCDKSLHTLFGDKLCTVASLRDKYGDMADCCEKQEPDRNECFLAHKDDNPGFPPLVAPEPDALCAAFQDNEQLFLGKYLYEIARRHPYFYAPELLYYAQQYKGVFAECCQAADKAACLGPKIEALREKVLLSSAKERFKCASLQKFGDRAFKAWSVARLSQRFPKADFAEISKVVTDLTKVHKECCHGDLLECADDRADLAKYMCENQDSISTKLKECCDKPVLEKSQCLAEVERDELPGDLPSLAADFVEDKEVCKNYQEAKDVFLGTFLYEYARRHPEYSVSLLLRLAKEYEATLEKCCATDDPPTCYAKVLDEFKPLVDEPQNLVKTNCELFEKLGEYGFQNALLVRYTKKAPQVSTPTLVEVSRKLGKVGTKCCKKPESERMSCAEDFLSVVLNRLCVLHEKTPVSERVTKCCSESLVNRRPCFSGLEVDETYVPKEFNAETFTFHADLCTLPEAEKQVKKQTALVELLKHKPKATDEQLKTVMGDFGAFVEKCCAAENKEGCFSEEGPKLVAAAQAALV

biotin-OPh-CO—NH2 [reference compound]
rate of biotin addition (optical density vs time, FIG. 10) (HSA [1]): on the base line
half-reaction (fraction V HSA [2]): about 330 min
selectivity of labeling (immunoblot, FIG. 7) [3]: does not label selectively

LC-biotin-OPh-CO-FlYEE-NH2
lysine residue of HSA where LC-biotin is attached (HSA [4]): Lys519

HO-Ph-CO-FlYEE-NH2 ({Benzoyl(4-OH)}-F[dL]YEE-NH2) [leaving group liberated from biotin-OPh-CO-FlYEE-NH2]
direct competition with biotin-OPh-CO-FlYEE-NH2 for HSA (FIG. 8) (fraction V HSA [5]; 0-100 molar excess, 44 μM biotin-OPh-CO-FlYEE-NH2, 15 μM HSA, 1 h at 37° C.): occupies a specific binding site on HSA
effect of prior incubation with HSA on binding of biotin-OPh-CO-FlYEE-NH2 (FIG. 9) (fraction V HSA [5]; 0 to 50 molar excess incubated with 15 μM HSA for 1 h, then 44 μM biotin-OPh-CO-FlYEE-NH2 1 h at 37° C.): prevents binding of biotin-OPh-CO-FlYEE-NH2
effect of competition on rate of reaction (fraction V HSA [5]; between 1 to 5 molar excess of HO-Ph-CO-FlYEE-NH2): very minor effect on the rate of reaction

CC(C)C[C@@H](NC(=O)[C@H](Cc1ccccc1)NC(=O)c1ccc(OC(=O)CCCC[C@@H]2SC[C@@H]3NC(=O)N[C@@H]32)cc1)C(=O)N[C@@H](Cc1ccc(O)cc1)C(=O)N[C@@H](CCC(=O)O)C(=O)N[C@@H](CCC(=O)O)C(N)=O [biotin-OPh-CO-FlYEE-NH2] (X1-F[dL]YEE-NH2)
specificity of labeling for pig albumin (immunoblot) (pig albumin): not for pig or dog albumin
rate of biotin addition (optical density vs time, FIG. 10) (HSA [1]): accelerated rate of biotin addition
half-reaction (fraction V HSA [2]): about 125 min
half-reaction (commercial human plasma): about 6 min
portion reacted with protein target (commercial human plasma; after five minutes (FIG. 12)): more than half
specificity of labeling for dog albumin (immunoblot) (dog albumin): not for pig or dog albumin
half-life [6]: ~173 h
